Data: paper PMC8944987, “In Vivo Efficacy of SQ109 against Leishmania donovani, Trypanosoma spp. and Toxoplasma gondii and In Vitro Activity of SQ109 Metabolites” (Biomedicines, 2022)
pEC50, pIC50: −log10 of the molar value. “Also recorded” adds a separate entry of the source. Like-named read-outs stand apart in the source and are kept apart here.

What was measured:
[1] = test system: T. b. brucei Lister strain 427 bloodstream form (BSF); experiment: In vitro activity assay for T. brucei (resazurin growth inhibition); format: cell-based; settings: Trypanosoma brucei
[2] = test system: T. cruzi Dm28c epimastigotes; experiment: T. cruzi epimastigotes assay (resazurin); format: cell-based; settings: Trypanosoma cruzi
Protocol: The exponential growth phase of epimastigotes were treated with different concentrations of drugs or 0.1% DMSO as negative control and incubated for 3 days at 28 °C. The viability of parasites was quantified with resazurin as described in the T. brucei assay.

[3] = test system: intracellular T. cruzi Dm28c amastigotes in U2OS; experiment: T. cruzi intracellular amastigotes assay in U2OS (image based); format: cell-based; settings: Trypanosoma cruzi
Protocol: (§1) U2OS human osteosarcoma cells were maintained in DMEM supplemented with high glucose, 10% FBS, and 1% P/S at 37 °C with 5% CO2 in air. […] Cell images were acquired by an automated image analyzer (Operetta, Perkin Elmer Technology, Waltham, MA, USA); analysis included at least 1000 cells in five fields per well. For the imaging of infected cells and parasites, Draq-5 was observed under a 20× air objective. An image analysis algorithm (Columbus, Perkin Elmer Technology) was used to detect the Draq-5 signal in the nuclei of cells and parasites as described in a previous article and shown in Supplementary Figure S1 [20]. The number of parasites was defined by the value of the number of parasites in infected cells of the acquired image.

[4] = Host cell toxicity in the T. cruzi amastigote assay; format: cell-based; settings: human
Protocol: as §1

[5] = test system: THP-1 human monocyte cell line; experiment: Host cell toxicity in the L. donovani amastigote assay; format: cell-based; settings: 3 days of compound incubation; Figure 2F
Protocol: The THP-1 human monocyte cell line was grown in RPMI-1640 medium (Welgene, Gyeongsangbuk-do, Republic of Korea) supplemented with 10% FBS and 1% P/S. For differentiation, THP-1 cells were treated for 3 days with 50 ng/mL of PMA [20]. […] An image analysis was performed as described in the T. cruzi assay (Figure S2).

T. gondii tachyzoites = experiment: In vitro activity assay for T. gondii (td-tomato tachyzoites in hTert fibroblasts); format: cell-based; settings: Toxoplasma gondii, Fibroblast; human fibroblasts (hTert), fluorescence 3 to 4 days; Figure 6A; read-out: IC50, T. gondii cell growth inhibition (intracellular tachyzoite assay)
Protocol: We used a parasite strain expressing red fluorescent protein (td-tomato) for in vitro drug testing. Tachyzoites were maintained in human fibroblasts (hTert cells). Human fibroblasts were cultured in 96-well plates for 24 h prior to the addition of 4000 fluorescent tachyzoites/well. Fluorescence values were measured for 3 to 4 days, and both excitation (544 nm) and emission (590 nm) were read from the bottom of the plates in a Molecular Devices (Molecular Devices, LLC, CA, USA) plate reader.

T. b. brucei Lister 427 = experiment: T. brucei acute in vivo mouse model; parameters: species or system BALB/c mice
T. cruzi Dm28c = experiment: T. cruzi acute in vivo mouse model; parameters: species or system BALB/c mice
Text: BALB/c mice were infected with TCT of T. cruzi Dm28c (10^7 cells) by i.p. injection. Five days post-infection, infected mice were sacrificed to collect BSF of T. cruzi. BALB/c mice were intraperitoneally infected with BSF of T. cruzi Dm28c (5 × 10^4 cells). Five days post-infection, BALB/c mice were infected with previously collected 2nd-round BSF cells (3 × 10^4 cells). Mice were divided into groups (n = 10) and treated orally with drugs for 5 consecutive days for 2 weeks by starting from day 2 post-infection administration of DPBS, 100 mg/kg of benznidazole, or 100 mg/kg of SQ109 via p.o. route, respectively. Parasitemia was evaluated every 2 days for 5 weeks by blood collection from the mouse tail vein, and survival was monitored for 2 months. Mice showing impaired health status were euthanized.

L. donovani amastigotes = experiment: L. donovani (VL) in vivo mouse model, liver LDU; parameters: species or system BALB/c mice; settings: for parasite burden in liver (LDU): 5 days of treatment; for reduction of parasite burden: versus vehicle-treated group
Protocol: BALB/c mice (n = 5) were injected with 2 × 10^7 hamster spleen-derived L. donovani amastigotes via the retro-orbital venous sinus route. From day 7 post-infection, groups of mice were treated using the drug vehicle only, miltefosine (30 mg/kg), or SQ109 (30, 50, 100 mg/kg). On day 16 post-infection, all animals were humanely euthanized and assessed microscopically using Giemsa-stained liver imprints. […] The LDU values for the drug-treated samples were compared to those of the untreated samples.

[6] = Adverse effects observed during the in vivo experiments; parameters: species or system mice; settings: tested doses (20 to 100 mg/kg)
[7] = Reported tissue (liver) accumulation on repeated oral dosing; format: in vivo; settings: assuming the same volume-to-mass ratio, 28-day oral dosing, 10 mg/kg, from ref 30, read-out: SQ109 liver concentration
T. cruzi trypomastigotes = test system: T. cruzi trypomastigotes; parameters: method as in PMID 25583723; settings: cited from earlier work
T. cruzi epimastigotes = test system: T. cruzi epimastigotes; parameters: method as in PMID 25583723; settings: cited from earlier work
[8] = test system: L. mexicana intracellular amastigotes; parameters: method as in PMID 27458218; settings: cited from earlier work
[9] = test system: L. mexicana promastigotes; parameters: method as in PMID 27458218; settings: cited from earlier work
[10] = test system: L. donovani intracellular amastigotes; parameters: method as in PMID 31897791; settings: J774 macrophages as host cells; cited from earlier work
[11] = test system: Plasmodium falciparum mature gametocytes (stage IV/V); parameters: method as in PMID 33431834; settings: cited from earlier work
[12] = cited from earlier work
[13] = in vivo, 25 mg/kg; cited from earlier work
[14] = 100 mg/kg oral gavage, q.d. for 2 weeks

Work on `CC(C)=CCC/C(C)=C/CNCCNC1C2CC3CC(C2)CC1C3` (stereo not drawn) [SQ109, N-adamantan-2-yl-N’-((E)-3,7-dimethyl-octa-2,6-dienyl)-ethane-1,2-diamine] yielded an EC50 ([1]; bloodstream forms, read-out: T. brucei BSF EC50 (converted)) of 810 nM, a pIC50 ([1]; 3 days (72 h) of compound incubation, Figure 2A, read-out: IC50, T. brucei trypomastigote viability) of 6.49 and a pIC50 ([2]; 72 h, Figure 2C, read-out: IC50, T. cruzi epimastigote growth inhibition (resazurin reduction)) of 4.90. For the same compound, the pEC50 ([2]; epimastigotes, read-out: T. cruzi Dm28c EC50 (EPI)) was 5.35, the pIC50 ([3]; 72 h, U2OS host cells, 3 days of compound incubation, Figure 2D, read-out: IC50, intracellular T. cruzi amastigote survival) was 6.21 and the pEC50 ([3]; amastigotes in U2OS, read-out: T. cruzi Dm28c EC50 (AMA)) was 5.96. The CC50 at 3 days ([4]; 3 days of compound incubation, Figure 2D, read-out: half-maximal cytotoxic concentration (CC50) against the host U2OS) was 2950 nM, the CC50 at 3 days ([4]; amastigote host cells, read-out: T. cruzi Dm28c CC50 (U2OS)) was 3600 nM and the “host cell (THP-1) toxicity: concentration up to which none was observed” value [5] was over 10 µM. The pIC50 (T. gondii tachyzoites) was 5.74, the “extended survival compared to the vehicle control” value (T. b. brucei Lister 427; 30 mg/kg, q.d. for 5 days, p.o.) was 3.4 days and the “average day of survival” value (T. b. brucei Lister 427; 30 mg/kg, q.d. for 5 days, p.o., T. brucei infected BALB/c mice) was 8.6 days. For the same compound, the “average days of extended survival compared to the vehicle control” value (T. b. brucei Lister 427; 100 mg/kg, q.d. for 5 days, p.o.) was 3.6 days, the “parasitemia in blood, in words” value (T. b. brucei Lister 427; 30 or 100 mg/kg p.o. for 5 days, Figure 3B) was “parasitemia rapidly increased after the termination of SQ109 administration; also recorded: not able to completely clear the parasites in the bloodstream” and the “delay of the peak of parasitemia compared to the vehicle control” value (T. cruzi Dm28c; [14]) was 4 days. For the same compound, the peak of parasitemia (T. cruzi Dm28c; [14]) was 18 days post-infection, the “parasite reduction at the peak of parasitemia of the vehicle group” value (T. cruzi Dm28c; 100 mg/kg oral gavage, q.d. for 2 weeks, 14 days post-infection) was 46.1% and the “survival of T. cruzi infected mice” value (T. cruzi Dm28c; 100 mg/kg p.o., 40 days post-infection) was 80%. For the same compound, the “parasite burden in liver (LDU)” value (L. donovani amastigotes; 30 mg/kg) was 1060 ± 110 LDU, the “parasite burden in liver (LDU)” value (L. donovani amastigotes; 50 mg/kg) was 772 ± 89 LDU and the “reduction of parasite burden” value (L. donovani amastigotes; 50 mg/kg) was 31.8%. The “parasite burden in liver (LDU)” value (L. donovani amastigotes; 100 mg/kg) was 737 ± 145 LDU, the “reduction of parasite burden” value (L. donovani amastigotes; 100 mg/kg) was 34.9% and the “adverse effects throughout the in vivo experiments” value [6] was “did not observe any adverse effects”. For the same compound, the concentration at 28 days [7] was about 6 µM, the pIC50 (T. cruzi trypomastigotes) was 7.30 and the pIC50 (T. cruzi epimastigotes) was 5.34. For the same compound, the pIC50 [8] was about 7.96, the pIC50 [9] was about 6.30 and the pIC50 [10] was 8.14. For the same compound, the pIC50 [11] was 6.98, the “maximum tolerated dose (MTD)” value [12] was 600 mg/kg and the “t1/2 (terminal phase)” value [13] was 5.2 h.
